{
  "source": "patent US6355799B1",
  "about": "“Substituted benzene compounds, process for their preparation, and herbicidal and defoliant compositions containing them” (ISK Americas Incorporated, priority 1997, dated 2002)",
  "type_in_all_cases": "in vivo",
  "key": {"[1]": {"test_system": "redroot pigweed (Amaranthus retroflexus, AMARE)", "assay": "Pre-emerge test, greenhouse herbicide activity screening", "settings": "rated 14 days after application, 0 = no damage, 100 = complete death", "summary_of_the_method": "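Rating: 0–100 visual injury, 14 DAA. Application: acetone, 187 l/ha, 15–1000 g ai/ha, flat-fan track sprayer with nozzle 40–45 cm above soil or canopy. Post-emerge runs used 0.25% v/v surfactant on 2–3 leaf plants.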"}, "[2]": {"test_system": "field corn (Zea mays L., var. Dekalb 535, CORN)", "assay": "Post-emerge test, crop safety", "settings": "post-emerge, 14 days after application, rating scale 0-100", "summary_of_the_method": "(§1)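 Fourteen days after spraying, crop and weed injury was graded visually from 0, no effect, to 100, every plant dead. Test substances were dissolved in acetone and applied at 15–1000 g ai/ha with a flat-fan nozzle. Application was either pre-emergence, one day after sowing, or post-emergence at the 2–3 leaf stage.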"}, "[3]": {"test_system": "upland rice (Oryza sp., var. Tebonnet, RICE)", "assay": "Post-emerge test, crop safety", "settings": "post-emerge, 14 days after application, rating scale 0-100", "summary_of_the_method": "as §1"}, "[4]": {"test_system": "field corn (Zea mays L., var. Dekalb 535, CORN)", "assay": "Pre-emerge test, crop safety", "settings": "rated 14 days after application, 0 = no damage, 100 = complete death", "summary_of_the_method": "as §1"}, "[5]": {"test_system": "upland rice (Oryza sp., var. Tebonnet, RICE)", "assay": "Pre-emerge test, crop safety", "settings": "rated 14 days after application, 0 = no damage, 100 = complete death", "summary_of_the_method": "as §1"}, "[6]": {"test_system": "sicklepod (Cassia obtusifolia, CASOB)", "assay": "Post-emerge test, greenhouse herbicide activity screening", "settings": "post-emerge, 14 days after application, rating scale 0-100", "summary_of_the_method": "(§2)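 Herbicidal damage is scored 0 (none) to 100 (complete plant death) two weeks after a simulated field spray. Rates span 15–1000 g ai/ha, delivered in acetone at 187 l/ha. For post-emergence treatments, plants have 2–3 leaves and the spray carries 0.25% v/v non-ionic surfactant.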"}, "[7]": {"test_system": "barnyardgrass (Echinochloa crus-galli, ECHCG)", "assay": "Post-emerge test, greenhouse herbicide activity screening", "settings": "post-emerge, 14 days after application, rating scale 0-100", "summary_of_the_method": "as §2"}, "[8]": {"test_system": "green foxtail (Setaria viridis, SETVI)", "assay": "Post-emerge test, greenhouse herbicide activity screening", "settings": "post-emerge, 14 days after application, rating scale 0-100", "summary_of_the_method": "as §2"}, "[9]": {"test_system": "large crabgrass (Digitaria sanguinalis, DIGSA)", "assay": "Post-emerge test, greenhouse herbicide activity screening", "settings": "post-emerge, 14 days after application, rating scale 0-100", "summary_of_the_method": "as §2"}, "[10]": {"test_system": "lambsquarters (Chenopodium album, CHEAL)", "assay": "Post-emerge test, greenhouse herbicide activity screening", "settings": "post-emerge, 14 days after application, rating scale 0-100", "summary_of_the_method": "as §2"}, "[11]": {"test_system": "johnsongrass (Sorghum halepense, SORHA)", "assay": "Post-emerge test, greenhouse herbicide activity screening", "settings": "post-emerge, 14 days after application, rating scale 0-100", "summary_of_the_method": "as §2"}, "[12]": {"test_system": "redroot pigweed (Amaranthus retroflexus, AMARE)", "assay": "Post-emerge test, greenhouse herbicide activity screening", "settings": "post-emerge, 14 days after application, rating scale 0-100", "summary_of_the_method": "as §2"}, "[13]": {"test_system": "velvetleaf (Abutilon theophrasti, ABUTH)", "assay": "Post-emerge test, greenhouse herbicide activity screening", "settings": "post-emerge, 14 days after application, rating scale 0-100", "summary_of_the_method": "as §2"}, "[14]": {"test_system": "ivyleaf morningglory (Ipomoea hederacea, IPOHE)", "assay": "Post-emerge test, greenhouse herbicide activity screening", "settings": "post-emerge, 14 days after application, rating scale 0-100", "summary_of_the_method": "as §2"}, "[15]": {"test_system": "sicklepod (Cassia obtusifolia, CASOB)", "assay": "Pre-emerge test, greenhouse herbicide activity screening", "settings": "rated 14 days after application, 0 = no damage, 100 = complete death", "summary_of_the_method": "as §1"}, "[16]": {"test_system": "barnyardgrass (Echinochloa crus-galli, ECHCG)", "assay": "Pre-emerge test, greenhouse herbicide activity screening", "settings": "rated 14 days after application, 0 = no damage, 100 = complete death", "summary_of_the_method": "as §1"}, "[17]": {"test_system": "green foxtail (Setaria viridis, SETVI)", "assay": "Pre-emerge test, greenhouse herbicide activity screening", "settings": "rated 14 days after application, 0 = no damage, 100 = complete death", "summary_of_the_method": "as §1"}, "[18]": {"test_system": "large crabgrass (Digitaria sanguinalis, DIGSA)", "assay": "Pre-emerge test, greenhouse herbicide activity screening", "settings": "rated 14 days after application, 0 = no damage, 100 = complete death", "summary_of_the_method": "as §1"}, "[19]": {"test_system": "lambsquarters (Chenopodium album, CHEAL)", "assay": "Pre-emerge test, greenhouse herbicide activity screening", "settings": "rated 14 days after application, 0 = no damage, 100 = complete death", "summary_of_the_method": "as §1"}, "[20]": {"test_system": "johnsongrass (Sorghum halepense, SORHA)", "assay": "Pre-emerge test, greenhouse herbicide activity screening", "settings": "rated 14 days after application, 0 = no damage, 100 = complete death", "summary_of_the_method": "as §1"}, "[21]": {"test_system": "velvetleaf (Abutilon theophrasti, ABUTH)", "assay": "Pre-emerge test, greenhouse herbicide activity screening", "settings": "rated 14 days after application, 0 = no damage, 100 = complete death", "summary_of_the_method": "as §1"}, "[22]": {"test_system": "ivyleaf morningglory (Ipomoea hederacea, IPOHE)", "assay": "Pre-emerge test, greenhouse herbicide activity screening", "settings": "rated 14 days after application, 0 = no damage, 100 = complete death", "summary_of_the_method": "as §1"}},
  "data": [
    {"smiles": "Cn1c(C(F)(F)F)cc(=O)n(-c2c(F)cc(Cl)c(OCC#N)c2N(C(=O)c2ccc(F)cc2F)C(=O)c2ccc(F)cc2F)c1=O", "note": "[2-45]", "values": [
      {"measurement": "Pre-emerge Herbicidal Activity, phytotoxicity rating (0-100), AMARE", "setting": "[1]; 63 g ai/ha", "value": 70},
      {"measurement": "Pre-emerge Herbicidal Activity, phytotoxicity rating (0-100), AMARE", "setting": "[1]; 250 g ai/ha", "value": 100},
      {"measurement": "phytotoxicity rating CORN", "setting": "[2]; 63 g ai/ha", "value": 0},
      {"measurement": "phytotoxicity rating CORN", "setting": "[2]; 250 g ai/ha", "value": 5},
      {"measurement": "phytotoxicity rating RICE", "setting": "[3]; 63 g ai/ha", "value": 0},
      {"measurement": "phytotoxicity rating RICE", "setting": "[3]; 250 g ai/ha", "value": 10},
      {"measurement": "Pre-emerge phytotoxicity rating (0-100), crop damage, CORN", "setting": "[4]; 63 g ai/ha", "value": 0},
      {"measurement": "Pre-emerge phytotoxicity rating (0-100), crop damage, CORN", "setting": "[4]; 250 g ai/ha", "value": 0},
      {"measurement": "Pre-emerge phytotoxicity rating (0-100), crop damage, RICE", "setting": "[5]; 63 g ai/ha", "value": 0},
      {"measurement": "Pre-emerge phytotoxicity rating (0-100), crop damage, RICE", "setting": "[5]; 250 g ai/ha", "value": 0},
      {"measurement": "phytotoxicity rating CASOB", "setting": "[6]; 63 g ai/ha", "value": 0},
      {"measurement": "phytotoxicity rating CASOB", "setting": "[6]; 250 g ai/ha", "value": 20},
      {"measurement": "phytotoxicity rating ECHCG", "setting": "[7]; 63 g ai/ha", "value": 0},
      {"measurement": "phytotoxicity rating ECHCG", "setting": "[7]; 250 g ai/ha", "value": 0},
      {"measurement": "phytotoxicity rating SETVI", "setting": "[8]; 63 g ai/ha", "value": 0},
      {"measurement": "phytotoxicity rating SETVI", "setting": "[8]; 250 g ai/ha", "value": 40},
      {"measurement": "phytotoxicity rating DIGSA", "setting": "[9]; 63 g ai/ha", "value": 0},
      {"measurement": "phytotoxicity rating DIGSA", "setting": "[9]; 250 g ai/ha", "value": 0},
      {"measurement": "phytotoxicity rating CHEAL", "setting": "[10]; 63 g ai/ha", "value": 30},
      {"measurement": "phytotoxicity rating CHEAL", "setting": "[10]; 250 g ai/ha", "value": 30},
      {"measurement": "phytotoxicity rating SORHA", "setting": "[11]; 63 g ai/ha", "value": 0},
      {"measurement": "phytotoxicity rating SORHA", "setting": "[11]; 250 g ai/ha", "value": 0},
      {"measurement": "phytotoxicity rating AMARE", "setting": "[12]; 63 g ai/ha", "value": 10},
      {"measurement": "phytotoxicity rating AMARE", "setting": "[12]; 250 g ai/ha", "value": 20},
      {"measurement": "phytotoxicity rating ABUTH", "setting": "[13]; 63 g ai/ha", "value": 30},
      {"measurement": "phytotoxicity rating ABUTH", "setting": "[13]; 250 g ai/ha", "value": 40},
      {"measurement": "phytotoxicity rating IPOHE", "setting": "[14]; 63 g ai/ha", "value": 20},
      {"measurement": "phytotoxicity rating IPOHE", "setting": "[14]; 250 g ai/ha", "value": 30},
      {"measurement": "Pre-emerge Herbicidal Activity, phytotoxicity rating (0-100), CASOB", "setting": "[15]; 63 g ai/ha", "value": 0},
      {"measurement": "Pre-emerge Herbicidal Activity, phytotoxicity rating (0-100), CASOB", "setting": "[15]; 250 g ai/ha", "value": 0},
      {"measurement": "Pre-emerge Herbicidal Activity, phytotoxicity rating (0-100), ECHCG", "setting": "[16]; 63 g ai/ha", "value": "00"},
      {"measurement": "Pre-emerge Herbicidal Activity, phytotoxicity rating (0-100), ECHCG", "setting": "[16]; 250 g ai/ha", "value": 0},
      {"measurement": "Pre-emerge Herbicidal Activity, phytotoxicity rating (0-100), SETVI", "setting": "[17]; 63 g ai/ha", "value": 0},
      {"measurement": "Pre-emerge Herbicidal Activity, phytotoxicity rating (0-100), SETVI", "setting": "[17]; 250 g ai/ha", "value": 30},
      {"measurement": "Pre-emerge Herbicidal Activity, phytotoxicity rating (0-100), DIGSA", "setting": "[18]; 63 g ai/ha", "value": 0},
      {"measurement": "Pre-emerge Herbicidal Activity, phytotoxicity rating (0-100), DIGSA", "setting": "[18]; 250 g ai/ha", "value": 0},
      {"measurement": "Pre-emerge Herbicidal Activity, phytotoxicity rating (0-100), CHEAL", "setting": "[19]; 63 g ai/ha", "value": 60},
      {"measurement": "Pre-emerge Herbicidal Activity, phytotoxicity rating (0-100), CHEAL", "setting": "[19]; 250 g ai/ha", "value": 90},
      {"measurement": "Pre-emerge Herbicidal Activity, phytotoxicity rating (0-100), SORHA", "setting": "[20]; 63 g ai/ha", "value": 0},
      {"measurement": "Pre-emerge Herbicidal Activity, phytotoxicity rating (0-100), SORHA", "setting": "[20]; 250 g ai/ha", "value": 0},
      {"measurement": "Pre-emerge Herbicidal Activity, phytotoxicity rating (0-100), ABUTH", "setting": "[21]; 63 g ai/ha", "value": 0},
      {"measurement": "Pre-emerge Herbicidal Activity, phytotoxicity rating (0-100), ABUTH", "setting": "[21]; 250 g ai/ha", "value": 70},
      {"measurement": "Pre-emerge Herbicidal Activity, phytotoxicity rating (0-100), IPOHE", "setting": "[22]; 63 g ai/ha", "value": 0},
      {"measurement": "Pre-emerge Herbicidal Activity, phytotoxicity rating (0-100), IPOHE", "setting": "[22]; 250 g ai/ha", "value": 0}
    ]}
  ]
}
